Assay results: patent US4725581A, “New peptide compounds having a lactone or cycloamide structure” (ADIR et Compagnie, priority 1985, dated 1988)

What was measured:
Assay type in all cases: in vivo
cerebral AMPc = assay: Stimulation of the synthesis of cerebral AMPc; conditions: mice OF1/IFFA-Credo, 10 mg/kg intraperitoneally, five minutes after injection
Protocol: The compounds to be tested are administered intraperitoneally at a dose of 10 mg/kg to mice of strain OF1 /IFFA-Credo.
Five minutes after injection, the animals are sacrificed by freezing and the AMPc present in the cerebral structures is measured by radio immunology according to the Amersham method (specific binding protein).

rats = assay: Increase in the latency of the onset of sleep induced by Pentobarbital; conditions: 10 mg/kg i.p. before pentobarbital 40 mg/kg i.p.
Protocol: Pentobarbital, injected in rats at a dose of 40 mg/kg i.p., induces the onset of sleep.

mice = assay: Potentialisation of the toxicity of Yohimbine; conditions: Yohimbine alone 35 mg/kg i.p.
Protocol: Yohimbine, injected to mice at a dose of 35 mg/kg i.p. causes the death of 10% to 30% treated animals. The compounds of the invention administered at a dose of 10 mg/kg i.p. 15 minutes before the injection of Yohimbine increase the rate of mortality (+80% with compounds of examples 5 and 7).

Structure (SMILES)	increase of the intracerebral content of AMPc (cerebral AMPc) [%]	effect on the onset of sleep induced by pentobarbital (in words) (rats)	death of treated animals (mice)
NC(=O)[C@@H]1CCCN1C(=O)[C@H](Cc1c[nH]cn1)NC(=O)[C@@H]1CCC(=O)N1 [TRH, pyroglutamylhistidyl-prolinamide]	46	inactive	–
COC(=O)[C@@H]1[C@H]2C[C@H]3c4[nH]c5ccccc5c4CCN3C[C@@H]2CC[C@@H]1O [Yohimbine]	–	–	10% to 30
